Experimental data as given in US20140315738A1, “MARINE MEDAKA GENES RESPONDING TO THE EXPOSURE OF ENDOCRINE-DISRUPTING CHEMICALS, AND METHOD FOR DIAGNOSING AN AQUATIC ECO-SYSTEM CONTAMINATION USING SAME” (priority 2011, published 2014).

Test system: Javanese medaka (Oryzias javanicus) livers
Assay: real-time quantitative PCR of liver gene expression after exposure to BPA
Format: in vivo
Details: 76 μg/L, 48 hr, β-actin control gene
Description: To 3 L beaker with 2 L filtered seawater therein, 10 male Javanese medaka bred in culture water tank were transported each time, and acclimated for 24 hr. […] Additionally, five Javanese medaka of Example <1-1> were exposed to BPA (76 μg/L) for 48 hr. […] The Javanese medaka was transported to ice water, one at a time, which momentarily stunned it, followed by beheading and evisceration and liver removal.
Primers for real-time quantitative PCR (RT-PCR) for the above genes were designed and synthesized, and sequences of the primers of the genes for real time quantitative PCT are listed in Table 6 below.
With RNA template extracted with the method of Example <2-1>, cDNA was synthesized using AB High Capacity RAN-to-cDNA Kit (Applied Biosystems, USA). RNA in the amount of 1 μg was seeded, added with distilled water and titrated to 9 μl. 2×RT buffer (10 μl), and 20× enzyme Mix 1 μl were mixed well, centrifuged and precipitated, and allowed to react at 37° C. for 60 min. The reactant was heated at 95° C. for 5 min, after which reaction was completed. The synthesized cDNA was stored at −20° C.
To the 0.5 μg synthesized cDNA (corresponding to approximately 10 ng/μl), 0.8 primer pairs of corresponding genes (10 pmol/μl), and 2 SYBR1 mixture (10 μl) were added. The final amount was titrated to 20 μl using distilled water. At temperature condition of 95° C. 10 min, 95° C. 30 sec, 60° C. 30 sec, 72° C. 30 sec, 40 cycles of PCR were conducted.
CT values of the respective samples after exposure to BPA between control genes (β-actin) and genes of interest were compared with each other, and the relative expression differences of the genes of interest were quantified into relative values according to Relative Standard Curve (Table 7).

With CC(C)(c1ccc(O)cc1)c1ccc(O)cc1 [BPA, Bisphenol A] the “Fold difference, Apolipoprotein E1 (AP)” value was “+2.30 fold”, the “Fold difference, Arylamine N-acetyl transferase (ANAT)” value was −1.69 fold and the “Fold difference, Basigin (Bsgn)” value was “+4.25 fold”. For the same molecule, the “Fold difference, C1q-like adipose specific protein (C-ASP)” value was −2.17 fold, the “Fold difference, Calcium binding protein P22 (CBP-P22)” value was “+1.19 fold” and the “Fold difference, Catalase (Cat)” value was −1.49 fold. For the same molecule, the “Fold difference, Ceruloplasmin (Cer)” value was “+2.09 fold”, the “Fold difference, Chitinase (Chi)” value was −5.56 fold and the “Fold difference, Choline kinase (Chka)” value was “+4.18 fold”. The “Fold difference, Choriogenin L (ChL)” value was “+50.00 fold”, the “Fold difference, Complement component C8 beta (C8)” value was −1.37 fold and the “Fold difference, Complement factor B/C2-B (CF-B/C2)” value was −2.27 fold. The “Fold difference, Delta 6-desaturase (FD6D)” value was “+1.43 fold”, the “Fold difference, Delta-6 fatty acyl desaturase (FADSD6)” value was −1.39 fold and the “Fold difference, Glutaminase (Gls)” value was −1.35 fold. For the same molecule, the “Fold difference, Glutathione S-transferase (Gst)” value was −1.85 fold, the “Fold difference, Hepcidin (Hep)” value was −1.14 fold and the “Fold difference, Leukocyte elastase inhibitor (LE)” value was “+1.12 fold”. For the same molecule, the “Fold difference, Lipoprotein lipase (LPL)” value was “+1.11 fold”, the “Fold difference, N-acetyltransferase (NAT13)” value was −2.50 fold and the “Fold difference, Plasminogen (Plg)” value was “+1.25 fold”. The “Fold difference, Retinol binding protein 4 (RBP4)” value was “+1.12 fold”, the “Fold difference, Ring finger protein 141 (RFP)” value was “+1.23 fold” and the “Fold difference, TBT-binding protein (TBT-bp)” value was −1.66 fold. The “Fold difference, Transferrin (TF)” value was −1.30 fold, the “Fold difference, Uridine phosphorylase 2 (Upp2)” value was −1.72 fold and the “Fold difference, Vitellogenin 1 (Vit1)” value was −100.00 fold. The “Fold difference, Warm temperature acclimation (C243) (Wap65)” value was “+1.07 fold”.
